Source: US6338963B1, “Use of carbon monoxide dependent guanylyl cyclase modifiers to stimulate neuritogenesis” (NeoTherapeutics, Inc., priority 1994, dated 2002)
Marks after values point to notes of the source that are not given here.

How the values were obtained:
Swiss Webster mice = assay: Win-shift test, Swiss Webster mice with age-induced memory deficits; format: in vivo; settings: AIT-082 30 mg/kg
Method: Twelve-month old male Swiss Webster mice were screened for performance in the win-shift foraging test. Subjects were tested at various time delays, beginning at 10 seconds and increasing the inter-trial time interval to 30, 60, 90 and 120 seconds.
Subjects with severe impairment could not remember the correct response at 10 seconds while subjects with mild deficit could remember the correct response with a 30 second inter-trial interval but not at 60 seconds. Subjects with a moderate deficit could remember the correct response with a 10 second inter-trial interval but not […] at 30 seconds. Thus, the win-shift model can detect age-induced impairments in working memory. As will be appreciated by those skilled in the art, this observation is important since it provides the ability to use age-matched subjects with varying degrees of impairment for evaluation of potential therapeutic agents.
Following the establishment of a baseline, six subjects in each of the three groups were treated with AIT-82 (30 mg/kg, one hour before testing) or physostigmine (0.125 mg/kg, 30 minutes before testing) using the win-shift foraging test. The results are presented in Table L directly below and graphically represented in FIG. 9.

[1] = test system: basal forebrain cholinergic neurons; assay: Fimbria-fornix transection, ChAT-positive medial septum neurons; format: in vivo, F344 rats; settings: AIT-082 30 mg/kg IP every three days, 14 days post-lesion
Method: This model is the gold standard for examining the effects of neurotrophic factors, neurotrophic factor-releasing agents, and neurotrophic factor analogues in the central nervous system (CNS). Fimbria-fornix transections (FFT) are performed to induce the degeneration of basal forebrain cholinergic (BFC) neurons. […] The infusion of nerve growth factor completely prevents the degeneration of these neurons. In this experiment, animals received AIT-082 to determine whether it would prevent lesion-induced degeneration of BFC neurons.
Adult female F344 rats received an intraperitoneal (IP) injection of AIT-082 (30 mg/kg) or saline one hour prior to receiving a unilateral fimbria-fornix transection (FFT) (n=6 per group). All animals survived the surgery and continued to receive IP injections of AIT-082 or vehicle every three days following the lesion. All animals were perfused with fixative at 14 days post-lesion and brains were sectioned and processed for choline acetyltransferase (ChAT) and p75 immunoreactivity. For analysis, three sections, 240 μm apart, were taken at the level of the medial septum and ChAT positive cells were counted both ipsilateral and contralateral to the lesion.
For the results of FIG. 44, ChAT-positive cells were counted in three sections, 240 μm apart. Data was expressed as a ratio of cell counts ipsilateral to the lesion divided by counts contralateral to the lesion. […]

[2] = Appearance and weight during one week in drinking water; format: in vivo, F344 rats; settings: 30 mg/kg/day and ~3,000 mg/kg/day in drinking water
Method: Adult female F344 rats were given either AIT-082 (doses: 30 mg/kg/day or a higher dose of 30 mg/ml (˜3,000 mg/kg/day); n=6 rats per group) in their drinking water, or water alone, as a vehicle for control. The duration of the study was seven days, at which time the rats were anesthesized and perfused with ice-cold saline. The brains of the rats were rapidly removed. The brains were placed on a chilled glass plate and dissected into the following regions: basal forebrain, frontal cortex, parietal cortex, cerebellum, spinal cord, and hippocampal formation. Tissues were stored at −70° C. until assayed in a specific two-site ELISA for either NGF, BDNF, NT-3, or GNDF.
This effect was not seen in animals treated with AIT-082 at 3000 mg/kg/day.

## O=C(CCn1cnc2c(=O)[nH]cnc21)Nc1ccc(C(=O)O)cc1 [AIT-082, N-4-carboxyphenyl-3-(6-oxohydropurin-9-yl)propanamide]
Swiss Webster mice; Mild deficit, interval 60 sec
  subjects performing significantly above chance/total number of subjects: 6/6*
Swiss Webster mice; Mild deficit, interval 90 sec
  subjects performing significantly above chance/total number of subjects: 4/6
Swiss Webster mice; Mild deficit, interval 120 sec
  subjects performing significantly above chance/total number of subjects: 2/6
Swiss Webster mice; Mild deficit, interval 150 sec
  subjects performing significantly above chance/total number of subjects: 1/6
Swiss Webster mice; Mild deficit, interval 180 sec
  subjects performing significantly above chance/total number of subjects: 1/6
Swiss Webster mice; Mild deficit, interval 210 sec
  subjects performing significantly above chance/total number of subjects: 0/6
Swiss Webster mice; Moderate deficit, interval 30 sec
  subjects performing significantly above chance/total number of subjects: 4/6*
Swiss Webster mice; Moderate deficit, interval 60 sec
  subjects performing significantly above chance/total number of subjects: 2/6
Swiss Webster mice; Moderate deficit, interval 90 sec
  subjects performing significantly above chance/total number of subjects: 0/6
Swiss Webster mice; Severe deficit, interval <10 sec
  subjects performing significantly above chance/total number of subjects: 0/6
[1]
  lesion-induced loss of ChAT-labeled cells in the BFC region: did not reduce lesion-induced loss of ChAT-labeled cells
[2]
  appearance and weight: appeared normal and showed no overt signs of weight loss
